Results on 16 molecules are retold here after ChEMBL document CHEMBL1909046, “DrugMatrix in vitro pharmacology data”.

What is called IC50 is the concentration needed to halve the response being measured. Usually Ki stands for the dissociation constant of the complex between target and ligand, obtained from inhibition or displacement.

Series [1] concerns the target Cytochrome P450 2D6 (Homo sapiens, UniProt P10635). Particulars: bti-tn-5b1-4. Further: in other assays of this panel Not Active means under 50% inhibition at 10 µM.
Series [2] addresses Prostaglandin G/H synthase 1 (Homo sapiens, UniProt P23219). Nature of the series: biochemical. The class given is tissue-based, Platelet. Conditions: platelet.
Series [3] is described as follows: DRUGMATRIX: Phosphodiesterase PDE3 enzyme inhibition (substrate: [3H]cAMP + cAMP). The class given is tissue-based, Homo sapiens. Particulars: platelet; Not Active = under 50% inhibition at 10 µM.
Series [4] is described as follows: DRUGMATRIX: Glutamate, NMDA, Agonism radioligand binding (ligand: [3H] CGP-39653). Conditions: Not Active = under 50% inhibition at 10 µM. The class given is cell membranes, Rattus norvegicus, Wistar, Cerebral cortex, Membrane.
A short description of series [5]: DRUGMATRIX: Calcium Channel Type L, Benzothiazepine radioligand binding (ligand: [3H] Diltiazem). The class given is cell membranes, Rattus norvegicus, Wistar, Brain, Membrane. Particulars: Not Active = under 50% inhibition at 10 µM.
Series [6] deals with T1, D(4) dopamine receptor (Homo sapiens, UniProt P21917).
T1 sequence (P21917 whole entry): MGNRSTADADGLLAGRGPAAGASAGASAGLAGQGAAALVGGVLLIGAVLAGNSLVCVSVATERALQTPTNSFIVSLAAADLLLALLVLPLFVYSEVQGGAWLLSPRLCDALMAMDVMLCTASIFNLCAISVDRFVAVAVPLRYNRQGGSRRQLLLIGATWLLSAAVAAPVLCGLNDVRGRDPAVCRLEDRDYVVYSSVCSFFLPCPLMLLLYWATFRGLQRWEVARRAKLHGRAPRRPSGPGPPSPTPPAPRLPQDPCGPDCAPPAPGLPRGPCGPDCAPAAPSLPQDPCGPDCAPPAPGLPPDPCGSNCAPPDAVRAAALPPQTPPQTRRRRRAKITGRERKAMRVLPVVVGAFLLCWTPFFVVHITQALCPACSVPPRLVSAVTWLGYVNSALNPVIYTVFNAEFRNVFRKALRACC
In words: DRUGMATRIX: Dopamine D4.2 radioligand binding (ligand: [3H] Spiperone). Particulars: cho-k1; Not Active = under 50% inhibition at 10 µM. It counts as cell membranes, CHO-K1, Membrane.

The target of series [7] is Aldo-keto reductase family 1 member B1 (Rattus norvegicus, UniProt P07943). Nature of the series: biochemical. It counts as tissue-based, Lens of camera-type eye.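 Further: inhibition of aldose reductase enzyme activity, measured with DL-glyceraldehyde as the substrate; in other assays of this panel Not Active means under 50% inhibition at 10 µM.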

Chain of Prostaglandin G/H synthase 1 (P23219 whole entry): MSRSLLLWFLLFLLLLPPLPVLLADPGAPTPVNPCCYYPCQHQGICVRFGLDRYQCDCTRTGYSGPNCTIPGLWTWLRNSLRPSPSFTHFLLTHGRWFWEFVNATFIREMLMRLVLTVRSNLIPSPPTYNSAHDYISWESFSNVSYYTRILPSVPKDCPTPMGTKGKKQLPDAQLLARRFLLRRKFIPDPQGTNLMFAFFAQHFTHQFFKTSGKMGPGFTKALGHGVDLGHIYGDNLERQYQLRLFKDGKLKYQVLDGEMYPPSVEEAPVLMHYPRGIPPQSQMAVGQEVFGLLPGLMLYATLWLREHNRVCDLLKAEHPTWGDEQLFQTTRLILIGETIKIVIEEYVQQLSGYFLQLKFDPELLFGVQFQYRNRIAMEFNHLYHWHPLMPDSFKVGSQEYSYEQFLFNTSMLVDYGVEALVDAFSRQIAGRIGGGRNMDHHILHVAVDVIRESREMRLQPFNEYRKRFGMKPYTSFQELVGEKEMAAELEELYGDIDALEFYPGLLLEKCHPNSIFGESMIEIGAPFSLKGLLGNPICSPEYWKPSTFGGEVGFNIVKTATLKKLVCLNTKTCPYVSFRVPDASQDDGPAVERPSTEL
Chain of Cytochrome P450 2D6 (P10635 whole entry): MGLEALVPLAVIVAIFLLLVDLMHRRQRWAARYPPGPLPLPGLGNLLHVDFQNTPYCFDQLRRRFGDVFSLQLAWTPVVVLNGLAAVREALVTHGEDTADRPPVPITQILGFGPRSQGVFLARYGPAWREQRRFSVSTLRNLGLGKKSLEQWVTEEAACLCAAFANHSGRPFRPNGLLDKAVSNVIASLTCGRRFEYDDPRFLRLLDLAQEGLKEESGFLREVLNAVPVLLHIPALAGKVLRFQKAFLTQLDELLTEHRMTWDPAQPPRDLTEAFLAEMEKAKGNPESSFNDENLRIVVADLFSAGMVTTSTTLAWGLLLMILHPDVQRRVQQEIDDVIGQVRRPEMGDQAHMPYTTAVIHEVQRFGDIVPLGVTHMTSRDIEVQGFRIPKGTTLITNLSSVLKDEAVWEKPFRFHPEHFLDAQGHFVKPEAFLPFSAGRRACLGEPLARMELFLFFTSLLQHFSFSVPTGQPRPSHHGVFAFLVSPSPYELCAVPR

Regarding `CC(C)(C#N)c1cc(Cn2cncn2)cc(C(C)(C)C#N)c1` [ANASTROZOLE], the IC50 entry in series [1], in series [2], in series [3], in series [4], in series [5] and in series [6] was “Not Active” throughout. For the same molecule, the 50% inhibitory concentration (IC50) entry in series [7] was “Not Active”. Further, the Ki entry in series [1], in series [3], in series [4] and in series [5] was “Not Active” each time.
`C[C@]12CC[C@@H](O)C[C@@H]1CC[C@@H]1[C@@H]2CC[C@]2(C)C(=O)CC[C@@H]12` [ANDROSTERONE]: the half-inhibitory concentration (IC50) result in series [1], in series [2], in series [3], in series [4], in series [5] and in series [6] was “Not Active” each time. Also, the IC50 result in series [7] is on record as “Not Active”. For the same molecule, the inhibition constant Ki entry in series [1], in series [3], in series [4] and in series [5] was “Not Active” each time.
Regarding `NCC(CC(=O)O)c1ccc(Cl)cc1` (stereo unspecified) [BACLOFEN], the IC50 entry in series [1], in series [2], in series [3], in series [4], in series [5] and in series [6] was “Not Active” in each case. Also, in series [7], the IC50 result is recorded as “Not Active”. The Ki entry in series [1], in series [3], in series [4] and in series [5] was “Not Active” throughout.
Take `O=C(O)c1ccccc1` [BENZOIC ACID]: the IC50 entry in series [1], in series [2], in series [3], in series [4], in series [5] and in series [6] was “Not Active” in each case. The half-inhibitory concentration (IC50) result in series [7] is “Not Active”. For the same molecule, the Ki result in series [1], in series [3], in series [4] and in series [5] was “Not Active” throughout.
Regarding `c1ccc2sc(SSc3nc4ccccc4s3)nc2c1` [BENZOTHIAZYL DISULFIDE], the IC50 entry in series [1], in series [2], in series [3], in series [4], in series [5] and in series [6] was “Not Active” in each case. Besides, in series [7], the 50% inhibitory concentration (IC50) entry is listed as “Not Active”. In addition, the Ki entry in series [1], in series [3], in series [4] and in series [5] was “Not Active” each time.
For the molecule `OC[C@H]1O[C@@H]2O[C@H]3[C@H](O)[C@@H](O)[C@@H](O[C@H]4[C@H](O)[C@@H](O)[C@@H](O[C@H]5[C@H](O)[C@@H](O)[C@@H](O[C@H]6[C@H](O)[C@@H](O)[C@@H](O[C@H]7[C@H](O)[C@@H](O)[C@@H](O[C@H]8[C@H](O)[C@@H](O)[C@@H](O[C@H]1[C@H](O)[C@H]2O)O[C@@H]8CO)O[C@@H]7CO)O[C@@H]6CO)O[C@@H]5CO)O[C@@H]4CO)O[C@@H]3CO` [BETADEX], the 50% inhibitory concentration (IC50) entry in series [1], in series [2], in series [3], in series [4], in series [5] and in series [6] was “Not Active” throughout. Further, the IC50 entry in series [7] is recorded as “Not Active”. Besides, the inhibitory constant (Ki) entry in series [1], in series [3], in series [4] and in series [5] was “Not Active” throughout.
Consider `CC(C)(c1ccc(O)cc1)c1ccc(O)cc1` [BISPHENOL A], for which the IC50 entry in series [1], in series [2], in series [3], in series [4], in series [5] and in series [6] was “Not Active” each time. Further, the half-maximal inhibitory concentration (IC50) entry in series [7] was “Not Active”. Besides, the Ki entry in series [1], in series [3], in series [4] and in series [5] was “Not Active” each time.
Take `Cc1c(N)nc([C@H](CC(N)=O)NC[C@H](N)C(N)=O)nc1C(=O)N[C@H](C(=O)N[C@H](C)[C@@H](O)[C@H](C)C(=O)N[C@H](C(=O)NCCc1nc(-c2nc(C(=O)NCCC[S+](C)C)cs2)cs1)[C@@H](C)O)[C@@H](O[C@@H]1O[C@@H](CO)[C@@H](O)[C@H](O)[C@@H]1O[C@H]1O[C@H](CO)[C@@H](O)[C@H](OC(N)=O)[C@@H]1O)c1c[nH]cn1.[Br-]` [BLEOMYCIN A2]: the half-maximal inhibitory concentration (IC50) entry in series [1], in series [2], in series [3], in series [4], in series [5] and in series [6] was “Not Active” in each case. Also, in series [7], the half-maximal inhibitory concentration (IC50) result is “Not Active”. Further, the Ki entry in series [1], in series [3], in series [4] and in series [5] was “Not Active” in each case.
As to `CC12CCC(CC1=O)C2(C)C` (stereo unspecified) [CAMPHOR], the IC50 result in series [1], in series [2], in series [3], in series [4], in series [5] and in series [6] was “Not Active” each time. In addition, the concentration for half-maximal inhibition (IC50) entry in series [7] was “Not Active”. In addition, the Ki result in series [1], in series [3], in series [4] and in series [5] was “Not Active” in each case.
Consider `C[N+](C)(C)CCOC(N)=O.[Cl-]` [CARBACHOL], for which the half-maximal inhibitory concentration (IC50) entry in series [1], in series [2], in series [3], in series [4], in series [5] and in series [7] was “Not Active” each time. Moreover, the Ki entry in series [1], in series [3], in series [4], in series [5] and in series [6] was “Not Active” in each case.
Turning to `COc1ccccc1OCCNCC(O)COc1cccc2[nH]c3ccccc3c12` (stereo unspecified) [CARVEDILOL], the half-inhibitory concentration (IC50) result in series [1] is “Not Active”; in series [2], “Not Active”; in series [3], “Not Active”; in series [4], “Not Active”; in series [5] (read-out: IC50) it was 621 nM; in series [6] it was “Not Active”. Besides, in series [7], the 50% inhibitory concentration (IC50) entry was “Not Active”. In addition, the inhibition constant Ki entry in series [1] is “Not Active”; in series [3] it was “Not Active”; in series [4], “Not Active”; in series [5] (read-out: Ki), 552 nM.
Regarding `Cl.NC[C@H]1CC[C@H](C(=O)Oc2ccc(CCC(=O)O)cc2)CC1` [CETRAXATE HYDROCHLORIDE], the IC50 entry in series [1], in series [2], in series [3], in series [4], in series [5] and in series [6] was “Not Active” in each case. In addition, the IC50 result in series [7] is on record as “Not Active”. Moreover, the Ki entry in series [1], in series [3], in series [4] and in series [5] was “Not Active” each time.
Consider `CC1(COc2ccc(CC3SC(=O)NC3=O)cc2)CCCCC1` (stereo unspecified) [CIGLITAZONE], for which the concentration for half-maximal inhibition (IC50) result in series [1], in series [2], in series [3], in series [4], in series [5] and in series [6] was “Not Active” each time. Moreover, the 50% inhibitory concentration (IC50) entry in series [7] is on record as “Not Active”. Also, the inhibition constant (Ki) entry in series [1], in series [3], in series [4] and in series [5] was “Not Active” each time.
As to `O=c1[nH]cnc2c1ncn2[C@H]1CC[C@@H](CO)O1` [DIDANOSINE], the IC50 entry in series [1], in series [2], in series [3], in series [4], in series [5] and in series [6] was “Not Active” in each case. In addition, the half-maximal inhibitory concentration (IC50) entry in series [7] is “Not Active”. Moreover, the Ki result in series [1], in series [3], in series [4] and in series [5] was “Not Active” in each case.
Take `ClC1=C(Cl)[C@]2(Cl)[C@@H]3[C@@H]4C[C@@H]([C@H]5O[C@@H]45)[C@@H]3[C@@]1(Cl)C2(Cl)Cl` [DIELDRIN]: the half-inhibitory concentration (IC50) entry in series [1], in series [2], in series [3], in series [4], in series [5] and in series [6] was “Not Active” in each case. The IC50 result in series [7] is on record as “Not Active”. For the same molecule, the inhibition constant Ki result in series [1], in series [3], in series [4] and in series [5] was “Not Active” each time.
For `CCN1CCN(c2cc3c(cc2F)c(=O)c(C(=O)O)cn3C2CC2)CC1` [ENROFLOXACIN], the IC50 entry in series [1], in series [2], in series [3], in series [4], in series [5] and in series [6] was “Not Active” in each case. For the same molecule, the IC50 result in series [7] is recorded as “Not Active”. For the same molecule, the Ki entry in series [1], in series [3], in series [4] and in series [5] was “Not Active” throughout.
